Calls of active or inactive are those of the source. The rule behind the calls is not given here.
The compounds below were run on Jurkat cell viability, ATP luminescence (assay: Jurkat T cell cytotoxicity, late-stage follow-up, cytotoxicity control for T. brucei MetRS inhibitor project, luminescence, round 3 (AID 1053130)).

Structure (SMILES) | IC50
O=C(Cn1cc(C(=O)C(=O)NCc2ccccc2)c2ccccc21)Nc1cc(Oc2ccccc2)cc(C(F)(F)F)c1 | 63.9 µM (inactive)
CCN(CC)C(=O)C(=O)c1cn(CC(=O)Nc2cc(Oc3ccc(F)cc3)cc(C(F)(F)F)c2)c2ccccc12 | 50.1 µM (inactive)
CCN(CC)C(=O)C(=O)c1cn(CC(=O)Nc2cc(Oc3ccccc3F)cc(C(F)(F)F)c2)c2ccccc12 | > 83.3 µM (inactive)
CCN(CC)C(=O)C(=O)c1cn(CC(=O)Nc2cc(Oc3ccccc3)cc(C(F)(F)F)c2)c2ccccc12 | 21 µM (inactive)
Nc1c(Cl)ncnc1Nc1ccc(C(=O)O)cc1 | > 83.3 µM (inactive)
CCN(CC)C(=O)C(=O)c1cn(CC(=O)Nc2cc(Oc3ccc(OC)cc3)cc(C(F)(F)F)c2)c2ccccc12 | 11.3 µM (inactive)
CCN(CC)C(=O)C(=O)c1cn(CCNc2cc(Oc3ccccc3)cc(C(F)(F)F)c2)c2ccccc12 | 34.8 µM (inactive)
CCN(CC)C(=O)C(=O)c1cn(CC(=O)Nc2cc(Oc3ccccc3OC)cc(C(F)(F)F)c2)c2ccccc12 | > 83.3 µM (inactive)
O=C(Cc1ccc(Nc2nc3ccc(Br)cc3[nH]2)cc1)NCCc1cccs1 | > 27.8 µM (inactive)
CCN(CC)C(=O)C(=O)c1cn(CC(=O)Nc2cccc(C(F)(F)F)c2)c2ccccc12 | 57.2 µM (inactive)
CCN(CC)C(=O)C(=O)c1cn(CCNc2cccc(C(F)(F)F)c2)c2ccccc12 | 41.1 µM (inactive)
CCN(CC)C(=O)Cc1cn(CC(=O)Nc2cccc(C(F)(F)F)c2)c2ccccc12 | > 83.3 µM (inactive)

— PubChem BioAssay AID1053130 (The Scripps Research Institute Molecular Screening Center, 2014)
